Assay [1] addresses Carbonic anhydrase 13 (Mus musculus, UniProt Q9D6N1).
The target in assay [2] is Carbonic anhydrase 4 (Homo sapiens, UniProt P22748).
Assay [3] concerns the target Carbonic anhydrase 5B, mitochondrial (Homo sapiens, UniProt Q9Y2D0).
Assay [4] deals with Carbonic anhydrase 14 (Homo sapiens, UniProt Q9ULX7).
Assay [5] has as its target Carbonic anhydrase 3 (Homo sapiens, UniProt P07451).
Assay [6] concerns the target Carbonic anhydrase 5A, mitochondrial (Homo sapiens, UniProt P35218).

Chain of Carbonic anhydrase 13 (Q9D6N1 whole entry): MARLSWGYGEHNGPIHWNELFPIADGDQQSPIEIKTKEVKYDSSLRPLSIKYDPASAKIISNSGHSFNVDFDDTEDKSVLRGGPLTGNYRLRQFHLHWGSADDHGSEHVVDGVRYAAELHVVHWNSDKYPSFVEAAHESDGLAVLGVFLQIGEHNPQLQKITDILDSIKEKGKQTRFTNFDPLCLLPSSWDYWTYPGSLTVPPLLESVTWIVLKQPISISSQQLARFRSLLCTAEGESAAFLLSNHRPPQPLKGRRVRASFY
Chain of Carbonic anhydrase 4 (P22748 whole entry): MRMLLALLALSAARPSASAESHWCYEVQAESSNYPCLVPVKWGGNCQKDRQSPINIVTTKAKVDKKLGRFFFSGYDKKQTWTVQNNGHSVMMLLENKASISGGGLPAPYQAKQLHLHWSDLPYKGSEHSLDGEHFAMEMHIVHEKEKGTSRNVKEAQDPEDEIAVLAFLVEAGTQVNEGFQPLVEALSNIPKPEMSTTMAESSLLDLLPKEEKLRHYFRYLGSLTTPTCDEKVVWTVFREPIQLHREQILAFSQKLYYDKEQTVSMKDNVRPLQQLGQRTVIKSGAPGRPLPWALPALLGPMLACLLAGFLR
Chain of Carbonic anhydrase 5A, mitochondrial (P35218 whole entry): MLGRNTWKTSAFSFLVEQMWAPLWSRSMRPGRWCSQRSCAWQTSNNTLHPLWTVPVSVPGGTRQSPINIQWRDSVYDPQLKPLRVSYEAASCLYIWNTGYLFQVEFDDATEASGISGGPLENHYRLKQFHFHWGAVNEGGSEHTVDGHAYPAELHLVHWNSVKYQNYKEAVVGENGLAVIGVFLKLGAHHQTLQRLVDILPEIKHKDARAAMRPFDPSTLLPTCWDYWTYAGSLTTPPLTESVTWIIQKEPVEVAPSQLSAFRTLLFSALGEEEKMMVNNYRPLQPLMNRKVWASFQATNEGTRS
Chain of Carbonic anhydrase 5B, mitochondrial (Q9Y2D0 whole entry): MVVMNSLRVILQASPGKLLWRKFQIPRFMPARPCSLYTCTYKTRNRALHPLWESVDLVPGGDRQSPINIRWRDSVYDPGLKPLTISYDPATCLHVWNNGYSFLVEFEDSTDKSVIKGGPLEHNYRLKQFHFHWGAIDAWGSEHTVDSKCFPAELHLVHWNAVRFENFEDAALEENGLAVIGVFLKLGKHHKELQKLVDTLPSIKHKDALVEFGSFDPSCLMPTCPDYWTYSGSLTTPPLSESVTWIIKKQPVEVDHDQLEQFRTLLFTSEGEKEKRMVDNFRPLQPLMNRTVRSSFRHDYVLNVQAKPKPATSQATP
Chain of Carbonic anhydrase 3 (P07451 whole entry): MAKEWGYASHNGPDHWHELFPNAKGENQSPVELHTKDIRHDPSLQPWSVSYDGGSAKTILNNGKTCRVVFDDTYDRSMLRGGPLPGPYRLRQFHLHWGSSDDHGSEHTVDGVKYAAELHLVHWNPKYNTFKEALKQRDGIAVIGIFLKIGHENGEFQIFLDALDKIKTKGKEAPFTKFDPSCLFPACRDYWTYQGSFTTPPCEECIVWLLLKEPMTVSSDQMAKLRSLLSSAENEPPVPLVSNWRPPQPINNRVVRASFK
Chain of Carbonic anhydrase 14 (Q9ULX7 whole entry): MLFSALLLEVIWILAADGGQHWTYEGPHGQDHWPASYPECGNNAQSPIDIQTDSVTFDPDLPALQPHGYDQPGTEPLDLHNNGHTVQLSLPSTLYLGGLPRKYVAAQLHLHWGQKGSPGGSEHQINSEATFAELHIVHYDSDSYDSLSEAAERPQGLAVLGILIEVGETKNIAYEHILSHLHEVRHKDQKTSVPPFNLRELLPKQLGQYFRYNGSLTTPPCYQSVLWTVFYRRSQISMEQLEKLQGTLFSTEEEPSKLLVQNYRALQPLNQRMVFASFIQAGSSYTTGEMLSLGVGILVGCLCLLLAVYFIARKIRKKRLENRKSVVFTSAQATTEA

As to `CCNC1CN(CCCOC)S(=O)(=O)c2sc(S(N)(=O)=O)cc21` (single isomer, unassigned) [BRINZOLAMIDE], the Ki in assay [1] was 0.01 µM; in assay [2] it was 3.95 µM.
For the compound `NS(=O)(=O)c1cc(Cl)c(Cl)c(S(N)(=O)=O)c1` [DICHLORPHENAMIDE], the inhibitory constant (Ki) in assay [3] is 0.091 µM; in assay [4], 1.54 µM; in assay [1], 1.45 µM; in assay [5] it was 630 µM; in assay [6], 0.081 µM.

In general, Ki refers to a dissociation constant, usually derived from enzyme kinetics or from competition with a known ligand. Higher therefore signals a looser hold on the target.

For the origin of these results see ChEMBL document CHEMBL1144732 (Bioorg Med Chem Lett, 2008).
